Measured values reported in patent US9663789B2, “PME-1 as a biomarker to predict and diagnose endometrial and breast cancer and gene silencing of PME-1 to inhibit epithelial to mesenchymal transition” (MEDICAL DIAGNOSTIC LABORATORIES, LLC, priority 2013, dated 2017).

Columns and labels:
RL95-2 cells = assay: Colony forming / invasive growth assay in Matrigel; assay type: cell-based, human; details: RL95-2, 10 ng/ml TGF-β, 10 days
Procedure: To determine if PME-1 contributes to the more invasive and metastatic phenotypes, we performed a colony forming assay in matrigel.
The 3D On Top Matrigel Assay was completed in 24 well dishes. Briefly, the bottoms of 24 well dishes were coated with 50 μl BD Matrigel Basement Matrix Phenol Red Free (BD Biosciences cat. #356237) and allowed to solidify at 37° C. 10^5 cells were suspended in 250 μl chilled medium containing either 10 ng/ml of TGF-b or vehicle and allowed to settle at 37° C. for 30 minutes. Chilled medium containing 10% of Matrigel was added by pipetting gently down the sidewall of the well and incubated at 37° C. for ten days changing top medium every second day. Colony counts were performed on the tenth day; averages were taken from three fields of view using a 10× objective. Experiment was repeated three times.

PME-1 [1] = assay: Quantitative real-time PCR of PME-1 expression after TGF-β treatment; assay type: cell-based, human; details: RL95-2 control cells and +PME-1 cells, TGF-β 24 hours
Procedure: In this study, we transfected RL95-2 cells to express empty vector (Control), over-expressing PME-1 (+PME-1) or expressing shRNA against PME-1 (−PME-1 SEQ ID NO: 2) followed by serum starvation for 24 hours. Afterwards, either vehicle or TGF-β treatment was performed at the end of the 24 hours. TGF-β was used to induce cells to initiate the EMT program. Gene expression analysis was conducted using quantitative real-time PCR.
Total RNA was extracted with Qiagen RNAEasy kit from RL95-2 cells. cDNA was synthesized using 500 ng-1 μg of RNA and SuperScript VILO c-DNA mix (Life Technologies). Taqman probes and PCR-mix were purchased from Life Technologies. All samples were run in triplicates. Results are representative of three independent experiments in which genes of interest were normalized to the house-keeping gene, 18S or GAPDH, where fold-change was calculated using the ddCt method.

PME-1 [2] = assay: Western blot of PME-1 protein in RL95-2 cells; assay type: cell-based, human; details: GAPDH loading control
Procedure: We prepared RL95-2 cell lines expressing empty vector (control), over-expressing PME-1 (+PME-1), or expressing shRNA against PPME1, the gene that codes for PME-1 protein (−PME-1). Using these cells, we confirmed the appropriate level of PME-1 via real-time RT-PCR (data not shown) and Western blot analysis (FIG. 8). GAPDH was used as a loading control.
We also prepared two different shRNAs targeted against PME-1.
15 μg of protein was used for western analysis. PME-1 antibody (Santa Cruz) and COXIV (Cell Signaling Technologies) were used for detection of proteins and the blots were developed using chemiluminescence (Pierce ECL Western Blotting Substrate—Thermo Scientific) on the GE ImageQuant LAS 4000. For analysis of Akt, ERK, and β-catenin signaling in tissue culture, western analyses were completed as follows. RL95-2 cells stably infected with lentivirus expressing constructs were selected with puromycin (Invivogen). The cells were incubated with either 50 μM Akt inhibitor (LY 294002, Cell Signaling Technologies) or 40 μM ERK inhibitor (V0126, Cell Signaling Technologies) for 1-2 hours at 37° C. 1.5× Laemelli buffer (0.5 M Tris pH6.8, […], 10% sodium dodecyl sulfate, 100 mM EDTA) was used to prepare cell lysates. 20 μg of protein was used for western analysis. […]

Ishikawa cells [3] = assay: Trans-well migration assay; assay type: cell-based, human; details: 24 hr, collagen, 30% FBS bottom chamber
Procedure: We next asked if PME-1 inhibition led to decreased cell migration by completing a trans-well migration assay. Cells were synchronized for 24 hours in media containing 0% FBS. For this experiment, DMSO was again used as the vehicle control and Ishikawa cells were treated with DMSO (control) or 50 nM ABL-127 or 20 μM AMZ-30 for 24 hr and were allowed to migrate through a collagen-coated well towards the bottom chamber, containing media with 30% FBS.
The assay was completed with ECC-1 endometrial carcinoma cell lines following kit instructions Cultrex 96 Well Collagen IV Cell Invasion Assay (cat #3458-096-K). Briefly, cells were serum starved for 24 hours prior to experimentation, then counted and put into the top chamber of a collagen type IV coated Transwell membrane at a concentration of 1×10^6 cells/well in 0% FBS. The bottom chamber contained 30% FBS. Cells were allowed to invade at 37° C. humid chamber incubator for 24 hours. Cells that invaded were analyzed using the kit provided Calcein-AM and fluorescence was read using FluoStar Galaxy.

Ishikawa cells [4] = assay: Foci formation assay, Ishikawa cells; assay type: cell-based, human; details: DMSO set to 100%
Procedure: This study was completed in Ishikawa endometrial cancer cells.
1,000 cells were plated in a six well tissue culture dish in selection media (to include 5 μg/ml puromycin) (InvivoGen). Cells were allowed to adhere and grow in a 5% CO2, 37° C. incubator for 10 to 14 days. […] Cells were stained with 1% crystal violet (Sigma Aldrich) for five minutes and rinsed with PBS. Colonies were counted and data is presented as the percentage of change compared to the control. All Experiments were repeated at least three times.

recombinant PME-1_des3 = recombinant PME-1_des3 (Homo sapiens, UniProt Q9Y570); assay: Thermal melt (thermal shift) assay; assay type: binding; details: 50 μM ABL-127; PME-1+DMSO vehicle ˜55° C.
Procedure: There are several commercially available covalent PME-1 inhibitors that we have analyzed as potential endometrial cancer therapeutics. To confirm that the inhibitors directly bind PME-1, we completed a thermal melt assay. One micromole (1 μmole) of recombinant PME-1_des3, of which the last 3 amino acids are deleted, were pre-incubated with SYBR orange in the presence of 50 μM ABL-127 (a potent covalent PME-1 inhibitor, squares) or 0.05% DMSO (vehicle, circles) for 10 minutes (FIG. 25) at 37° C. We then performed a thermal gradient, increasing the temperature by 2° C. each minute from 37° C. to 95° C. and fluorescent signal was detected at 492-601 nm on a thermal cycler. The increase in Tm from ˜55° C. (PME-1+DMSO, circles) to ˜65° C. (PME-1+ABL-127, squares) indicated thermal stabilization of the PME-1 protein via direct binding of the ABL-127 inhibitor (FIG. 25).
The assay was completed by first conducting a 10 min pre-incubation of one μmole of recombinant PME-1des3 with 50 μM ABL127 (Sigma) or vehicle (0.05% DMSO) in the presence of SYBR Orange (1:1,000, v/v, Sigma) at 37° C. in 1×NEB buffer 2 (50 mM NaCl, 10 mM Tris-HCl, 10 mM MgCl2, 1 mM DTT, pH 7.9 at 25° C.), a thermal gradient was performed increasing temperature by 2° C. per minute increments from 37° to 95° C. and fluorescence (492 nm-610 nm) was acquired on a thermal cycler Mx3005P (Stratagene).

Sequence of recombinant PME-1_des3 (Q9Y570 1-383): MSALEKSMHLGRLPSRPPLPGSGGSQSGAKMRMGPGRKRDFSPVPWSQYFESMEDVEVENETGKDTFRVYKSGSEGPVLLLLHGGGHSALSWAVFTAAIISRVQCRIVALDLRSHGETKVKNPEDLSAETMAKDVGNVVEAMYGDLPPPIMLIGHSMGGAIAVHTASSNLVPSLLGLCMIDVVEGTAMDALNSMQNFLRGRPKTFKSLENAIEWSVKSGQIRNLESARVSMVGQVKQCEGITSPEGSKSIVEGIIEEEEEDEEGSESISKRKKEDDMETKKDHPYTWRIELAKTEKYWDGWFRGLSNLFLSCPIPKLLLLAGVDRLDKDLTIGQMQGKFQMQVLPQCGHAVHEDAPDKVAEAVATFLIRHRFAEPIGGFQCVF

TGF-β
colony number in Matrigel (RL95-2 cells): overall decrease in colony number | increase in PME-1 expression (PME-1 [1]): ~2 fold

shPPME1 no. 1: shRNA against PPME1, target sequence SEQ ID NO: 1 GTACAGCTATGGATGCACTTA, bp 554-574; full hairpin SEQ ID NO: 7 (CCGGGTACAGCTATGGATGCACTTACTCGAGTAAGTGCATCCATAGCTGTACTTTTT; listed as Homo sapiens)
PME-1 levels by Western blot analysis (PME-1 [2]): significantly decreased PME-1 levels

COC(=O)N1C(=O)C(c2ccccc2)(C2CCCC2)N1C(=O)OC (stereo in doubt) [ABL-127, (3R)-Dimethyl 3-cyclopentyl-4-oxo-3-phenyl-1,2-diazetidine-1,2,-dicarboxylate]
percentage of cells capable of migrating (Ishikawa cells [3]; 50 nM): dramatic decrease in the percentage of cells that are capable of migrating | decrease in the amount of foci formed (Ishikawa cells [4]; 50 nM every 2-3 days for 10 days): ~50% | Tm of PME-1 with inhibitor (recombinant PME-1_des3): ~65 °C

N#C/C(=C\c1cccn1S(=O)(=O)c1cccc([N+](=O)[O-])c1)S(=O)(=O)c1ccc(F)cc1 [AMZ-30, (E)-2-(4-Fluorophenylsulfonyl)-3-(1-(3-nitrophenylsulfonyl)-1H-pyrrol-2-yl)-acrylonitrile]
percentage of cells capable of migrating (Ishikawa cells [3]; 20 μM): dramatic decrease in the percentage of cells that are capable of migrating | decrease in the amount of foci formed (Ishikawa cells [4]; 25 μM every 2-3 days for 10 days): ~50%
